Assay results published in patent publication US20240109915A1, “NOVEL ACC INHIBITORS” (Pfizer Inc., priority 2022, published 2024).

test system: SZ95 sebocytes; assay: Radiometric measurement of de novo lipogenesis in cultured human sebocytes; assay type: cell-based; conditions: Geomean IC50, n>2 unless * then n=1, 14C acetate incorporation into lipids (DNL)
Description: SZ95 sebocytes were grown in Human Sebocyte Growth Medium (HSGM) containing Sebomed® basal medium (Sigma-Aldrich, F8205) supplemented with 10% heat-inactivated fetal bovine serum (Gibco, 10100-147), 1% penicillin/streptomycin (Gibco, 15070-063), 1 mM calcium chloride (Fisher, BP9742-10X5) and 5 ng/mL recombinant human epidermal growth factor (Gibco, PHG0311). At 90% confluence, cells were washed with PBS and then detached with 0.05% Trypsin-EDTA (Gibco, 25300054). Prior to starting the assay, cells were centrifuged and resuspended in HSGM containing 5% charcoal-stripped serum (Life Technologies, 12676-029) instead of 10% heat-inactivated fetal bovine serum. Cells were added to 24-well plates at a density of 0.25×10^6 cells/well and incubated overnight at 37° C. to allow the cells to adhere to the culture plate. Cells were then treated with a dose response of compound (30, 1, 0.03, 0.006, 0.0009, 0.0002, and 0.00003 μM) with each concentration tested in duplicate. Briefly, compounds were dissolved in DMSO stocks and diluted 1:1000 into HSGM with charcoal-stripped media. The vehicle control wells were treated with 0.1% DMSO. After a 1-hour preincubation with compound or vehicle at 37° C., 0.25 μCi ^14C sodium acetate (American Radiolabeled Chemicals: ARC, 0173A) was added to each well. Plates were incubated for an additional two hours at 37° C. At the end of the incubation period, cells were removed from incubator, placed on ice, and then washed twice with ice-cold PBS to remove free ^14C-sodium acetate. Plates were sealed and stored at −20° C. until analysis. To induce lysis, 125 μL of mammalian protein extraction reagent (MPER; Fisher, 78501) was added to each well. Plates were shaken for 1 hour at room temperature and lysates transferred to individual 2 mL polypropylene tubes. Wells were then washed with 175 μL PBS, which was added to lysates. A chloroform:methanol solution (1:1 v/v, 450 μL) was added to each tube. All tubes were vortexed for 10 seconds and centrifuged at 14,000×g for 5 minutes at room temperature to separate the aqueous and organic phases. A 25 μL aliquot was removed from the bottom organic layer of each sample and added to 6 mL Optiphase Supermix scintillation fluid (PerkinElmer, 1200-439). Counts of ^14C were assessed by scintillation counting. DNL (counts of ^14C incorporated into lipids) was expressed as a percentage for compound treated cells relative to the vehicle control. IC50 values were determined using a non-linear regression (four parameter with variable slope) in GraphPad Prism.

IC50	SMILES
13.5 nM	COc1cc(C(=O)N2CCC3(CC2)CC(=O)c2nc(C(C)(C)C)sc2C3)cc2c(C)nn(C)c12 [Example 13, 2-(tert-butyl)-1′-(7-methoxy-1,3-dimethyl-1H-indazole-5-carbonyl)-5H-spiro[benzo[d]thiazole-6,4′-piperidin]-4(7H)-one]
12.9 nM	CNc1cnc2c(C)cc(C(=O)N3CCC4(CC3)CC(=O)c3nc(C(C)(C)C)sc3C4)cc2c1 [Example 15, 2-(tert-butyl)-1′-(8-methyl-3-(methylamino)quinoline-6-carbonyl)-5H-spiro[benzo[d]thiazole-6,4′-piperidin]-4(7H)-one]
18.1 nM	Cc1cc(C(=O)N2CCC3(CC2)CC(=O)c2nc(C(C)(C)C)sc2C3)cc2ccccc12 [Example 16, 2-(tert-butyl)-1′-(4-methyl-2-naphthoyl)-5H-spiro[benzo[d]thiazole-6,4′-piperidin]-4(7H)-one]

target: recombinant human ACC1 (rhACC1) (Homo sapiens (Human), UniProt Q13085); assay: Transcreener ADP detection FP assay, direct inhibition of rhACC1; assay type: biochemical; conditions: Geomean IC50, n ≥ 2 unless * then n = 1; 50 μM ATP, 30 μM acetyl-CoA
Description: The direct inhibition of ACC1 for the compounds of the present invention was determined using preparations of recombinant human ACC1 (rhACC1) (SEQ ID NO. 1)
Two liters of SF9 cells, infected with recombinant baculovirus containing full length human ACC1 cDNA, were suspended in ice-cold lysis buffer (25 mM Tris, pH 7.5; 150 mM NaCl; 10% glycerol; 5 mM imidazole (EMD Bioscience; Gibbstown, NJ); 2 mM TCEP (BioVectra; Charlottetown, Canada); Benzonase nuclease (10000 U/100 g cell paste; Novagen; Madison, WI); EDTA-free protease inhibitor cocktail (1 tab/50 ml; Roche Diagnostics; Mannheim, Germany). Cells were lysed by 3 cycles of freeze-thaw and centrifuged at 40,000×g for 40 minutes (4° C.). Supernatant was directly loaded onto a HisTrap FF crude column (GE Healthcare; Piscataway, NJ) and eluted with an imidazole gradient up to 0.5 M over 20 column volumes (CV). ACC1-containing fractions were pooled and diluted 1:5 with 25 mM Tris, pH 7.5, 2 mM TCEP, 10% glycerol and direct loaded onto a CaptoQ (GE Healthcare) column and eluted with an NaCl gradient up to 1 M over 20 CV's. Phosphate groups were removed from purified ACC1 by incubation with lambda phosphatase (100 U/10 μM target protein; New England Biolabs; Beverly, MA) for 14 hours at 4° C.; okadaic acid was added (1 μM final concentration; Roche Diagnostics) to inhibit the phosphatase. Purified ACC1 was exchanged into 25 mM Tris, pH 7.5, 2 mM TCEP, 10% glycerol, 0.5 M NaCl by 6 hour dialysis at 4° C. Aliquots were prepared and frozen at −80° C.
Measurement of rhACC1 Inhibition rhACC1 was assayed in a Corning #3820 (Corning, Tewksbury, MA) 384-well plate using the Transcreener ADP detection FP assay kit (Bellbrook Labs, Madison, Wisconsin) using the manufacturer's recommended conditions for a 50 μM ATP reaction. The final conditions for the assay were 50 mM HEPES, pH 7.2, 10 mM MgCl2, 7.5 mM tripotassium citrate, 2 mM DTT, 0.1 mg/mL BSA, 30 μM acetyl-CoA, 50 μM ATP, and 10 mM KHCO3. Typically, a […] was run for 60 min at room temp, and 10 μl of Transcreener stop and detect buffer was added and the combination incubated at room temp for an overnight (18 hours). The data was acquired on an Envision Fluorescence reader (PerkinElmer) using a 620 excitation Cy5 FP general dual mirror, 620 excitation Cy5 FP filter, 688 emission (S) and a 688 (P) emission filter.

SMILES	IC50
CC(C)(C)c1nc2c(s1)CC1(CCN(C(=O)c3cc(O)c4ccccc4c3)CC1)CC2=O [Example 57]	19.7 nM
COc1cccc2cc(C(=O)N3CCC4(CC3)CC(=O)c3nc(C(C)(C)C)sc3C4)[nH]c12 [Example 60]	27.3 nM
CC(C)(C)c1nc2c(s1)CC1(CCN(C(=O)c3ccc4ccccc4c3O)CC1)CC2=O [Example 63]	19.7 nM
Cc1c[nH]c2ccc(C(=O)N3CCC4(CC3)CC(=O)c3nc(C(C)(C)C)sc3C4)cc12 [Example 64]	11.8 nM
CC(C)(C)c1nc2c(s1)CC1(CCN(C(=O)c3ccc4[nH]cc(Cl)c4c3)CC1)CC2=O [Example 65]	13 nM
COc1cccc2ncc(C(=O)N3CCC4(CC3)CC(=O)c3nc(C(C)(C)C)sc3C4)cc12 [Example 66]	115 nM
COc1cc(C(=O)N2CCC3(CC2)CC(=O)c2nc(C(C)(C)C)sc2C3)cc(-c2ccccc2)n1 [Example 69]	16.1 nM
CNc1cc(C(=O)N2CCC3(CC2)CC(=O)c2nc(C(C)(C)C)sc2C3)cc(-c2ccccc2)n1 [Example 71]	13.6 nM
CC(C)(C)c1nc2c(s1)CC1(CCN(C(=O)c3ccc4nccc(O)c4c3)CC1)CC2=O [Example 72]	10000 nM
CNc1nc2ccccc2cc1C(=O)N1CCC2(CC1)CC(=O)c1nc(C(C)(C)C)sc1C2 [Example 74]	189 nM
COc1cc(C(=O)N2CCC3(CC2)CC(=O)c2nc(C(C)(C)C)sc2C3)c2[nH]ncc2c1 [Example 75]	17.6 nM
Cc1cc(C(=O)N2CCC3(CC2)CC(=O)c2nc(C(C)(C)C)sc2C3)cc2ccn(C)c12 [Example 76]	65.4 nM
COc1ccc2cc(C(=O)N3CCC4(CC3)CC(=O)c3nc(C(C)(C)C)sc3C4)cc(C)c2n1 [Example 80]	109 nM
COc1cc(C(=O)N2CCC3(CC2)CC(=O)c2nc(C(C)(C)C)sc2C3)cc2c1ccn2C [Example 83]	11.1 nM
COc1cc(C(=O)N2CCC3(CC2)CC(=O)c2nc(C(C)(C)C)sc2C3)nc2c(OC)cccc12 [Example 86]	14.3 nM
CC(C)(C)c1nc2c(s1)CC1(CCN(C(=O)c3ccc(Cl)c4[nH]ccc34)CC1)CC2=O [Example 88]	15 nM
Cc1cccc2ccc(C(=O)N3CCC4(CC3)CC(=O)c3nc(C(C)(C)C)sc3C4)cc12 [Example 91]	14 nM
Cc1cc(C(=O)N2CCC3(CC2)CC(=O)c2nc(C(C)(C)C)sc2C3)cc2c1NCCC2 [Example 93]	19.5 nM
COc1cc(C(=O)N2CCC3(CC2)CC(=O)c2nc(C(C)(C)C)sc2C3)cc2c(C)ccnc12 [Example 95]	46.5 nM
Cc1ccnc2c(C)cc(C(=O)N3CCC4(CC3)CC(=O)c3nc(C(C)(C)C)sc3C4)cc12 [Example 96]	26.1 nM
CCc1cnc2c(OC)cc(C(=O)N3CCC4(CC3)CC(=O)c3nc(C(C)(C)C)sc3C4)cc2c1 [Example 105]	33.6 nM
COc1cc(C(=O)N2CCC3(CC2)CC(=O)c2nc(C(C)(C)C)sc2C3)cc2cc[nH]c12 [Example 106]	12.9 nM
CCc1n[nH]c2c(OC)cc(C(=O)N3CCC4(CC3)CC(=O)c3nc(C(C)(C)C)sc3C4)cc12 [Example 107]	12.3 nM

Now those with a lower IC50, led by results:

IC50	SMILES
10.1 nM	COc1cnc2c(OC)cc(C(=O)N3CCC4(CC3)CC(=O)c3nc(C(C)(C)C)sc3C4)cc2c1 [Example 101]
9.6 nM	CC(C)(C)c1nc2c(s1)CC1(CCN(C(=O)c3cc(Cl)cc4cc[nH]c34)CC1)CC2=O [Example 90]
9.4 nM	CNc1nc2ccc(OC)cc2cc1C(=O)N1CCC2(CC1)CC(=O)c1nc(C(C)(C)C)sc1C2 [Example 77]
8.6 nM	COc1cc(C(=O)N2CCC3(CC2)CC(=O)c2nc(C(C)(C)C)sc2C3)c2[nH]nc(C)c2c1 [Example 98]
7.6 nM	CC(C)(C)c1nc2c(s1)CC1(CCN(C(=O)c3cc(Cl)c4cc[nH]c4c3)CC1)CC2=O [Example 78]
7.3 nM	Cc1cc(C(=O)N2CCC3(CC2)CC(=O)c2nc(C(C)(C)C)sc2C3)cc2ccccc12 [Example 16, 2-(tert-butyl)-1′-(4-methyl-2-naphthoyl)-5H-spiro[benzo[d]thiazole-6,4′-piperidin]-4(7H)-one]
7.1 nM	COc1ccc2ccc(C(=O)N3CCC4(CC3)CC(=O)c3nc(C(C)(C)C)sc3C4)cc2c1 [Example 58]
7 nM	Cc1c(O)c(C(=O)N2CCC3(CC2)CC(=O)c2nc(C(C)(C)C)sc2C3)cc2ccccc12 [Example 85]
6.7 nM	COc1cc(C(=O)N2CCC3(CC2)CC(=O)c2nc(C(C)(C)C)sc2C3)cc2cc(C3CC3)cnc12 [Example 104]
6.3 nM	CC(C)(C)c1nc2c(s1)CC1(CCN(C(=O)c3ccc(Cl)c4cc[nH]c34)CC1)CC2=O [Example 89]
6.2 nM	Cc1cn(C)c2c(C)cc(C(=O)N3CCC4(CC3)CC(=O)c3nc(C(C)(C)C)sc3C4)cc12 [Example 87]
6.1 nM	Cc1cc(C(=O)N2CCC3(CC2)CC(=O)c2nc(C(C)(C)C)sc2C3)cc2c1ccn2C [Example 82]
5.6 nM	CCc1nn(C)c2c(OC)cc(C(=O)N3CCC4(CC3)CC(=O)c3nc(C(C)(C)C)sc3C4)cc12 [Example 108]
5.4 nM	COc1cc(C(=O)N2CCC3(CC2)CC(=O)c2nc(C(C)(C)C)sc2C3)cc2c1c(C)nn2C [Example 103]
5.3 nM	COc1cc(C(=O)N2CCC3(CC2)CC(=O)c2nc(C(C)(C)C)sc2C3)cc2c(C)nn(C)c12 [Example 13, 2-(tert-butyl)-1′-(7-methoxy-1,3-dimethyl-1H-indazole-5-carbonyl)-5H-spiro[benzo[d]thiazole-6,4′-piperidin]-4(7H)-one]
4.6 nM	CC(C)(C)Nc1ccc2ccc(C(=O)N3CCC4(CC3)CC(=O)c3nc(C(C)(C)C)sc3C4)cc2n1 [Example 70]
3.9 nM	CN(C)c1cc(C(=O)N2CCC3(CC2)CC(=O)c2nc(C(C)(C)C)sc2C3)cc(-c2ccccc2)n1 [Example 68]
3.6 nM	Cc1cc(C(=O)N2CCC3(CC2)CC(=O)c2nc(C(C)(C)C)sc2C3)cc2[nH]ccc12 [Example 62]
3.4 nM	CNc1cnc2c(C)cc(C(=O)N3CCC4(CC3)CC(=O)c3nc(C(C)(C)C)sc3C4)cc2c1 [Example 15, 2-(tert-butyl)-1′-(8-methyl-3-(methylamino)quinoline-6-carbonyl)-5H-spiro[benzo[d]thiazole-6,4′-piperidin]-4(7H)-one]
3.1 nM	COc1cc(C(=O)N2CCC3(CC2)CC(=O)c2nc(C(C)(C)C)sc2C3)cc2c(OC)nccc12 [Example 100]
2.4 nM	Cc1c[nH]c2c(C)cc(C(=O)N3CCC4(CC3)CC(=O)c3nc(C(C)(C)C)sc3C4)cc12 [Example 92]
